The text below walks through data of PubChem BioAssay AID200 (DTP/NCI, 2004).

Several values for one entry are separate records, joined by “and”; a condition that tells them apart may be missing. Equal values may be shown once. Toxic doses and inconclusive results are not listed.

For this test, the system named is B6C3F1 mice, B16 melanoma ip, median survival T/C. The test is described as follows: NCI In Vivo Anticancer Drug Screen. Data for tumor model B16 Melanoma (intraperitoneal) in B6C3F1 mice. Particulars: endpoint: median survival time, higher = longer survival. The method, then:
The antitumor activity of compounds was measured in mice bearing transplantable tumors. Survival or tumor size were measured and the results are expressed as the measurement made in the treated group (T) divided by the measurement made in the vehicle treated control group (C). The tumor model used in this assay is B16 Melanoma (intraperitoneal) in B6C3F1 mice

The mark [1] stands for this setting: dose: 50.0 mg/kg/injection, schedule: Q01DX009 (ip), vehicle: Klucel (hydroxypropylcellulose) (HPC).
[2] abbreviates: dose: 100.0 mg/kg/injection, schedule: Q01DX009 (ip), vehicle: Klucel (hydroxypropylcellulose) (HPC).
The mark [3] stands for this setting: dose: 200.0 mg/kg/injection, schedule: Q01DX009 (ip), vehicle: Klucel (hydroxypropylcellulose) (HPC).
The mark [4] stands for this setting: dose: 12.5 mg/kg/injection, schedule: Q01DX009 (ip), vehicle: Klucel (hydroxypropylcellulose) (HPC).

Take `Cc1ccc(C(=Nc2ccccc2)N=P(c2ccccc2)(c2ccccc2)c2ccccc2)cc1`: the T/C reads like this: (dose: 12.5 mg/kg/injection, schedule: Q01DX009 (ip), vehicle: saline with Tween-80) 94 % of control; (dose: 25.0 mg/kg/injection, schedule: Q01DX009 (ip), vehicle: saline with Tween-80) 114 % of control; (dose: 50.0 mg/kg/injection, schedule: Q01DX009 (ip), vehicle: saline with Tween-80) 99 % of control.

As to `CC(C)(C)Oc1ccc(CC(NC(=O)OCC2c3ccccc3-c3ccccc32)C(=O)O)cc1` (stereo not given), the T/C by setting is: under setting [1], 107 % of control; under setting [2], 108 % of control; under setting [3], 105 % of control.

With `COC(=O)C1OC(OC2=C(c3ccc(OC)cc3)C(=O)C(OC3OC(C(=O)OC)C(OC(C)=O)C(OC(C)=O)C3OC(C)=O)=C(c3ccc(OC)cc3)C2=O)C(OC(C)=O)C(OC(C)=O)C1OC(C)=O` (stereo not given), the T/C by setting is: (dose: 0.78 mg/kg/injection, schedule: Q01DX009 (ip), vehicle: Klucel (hydroxypropylcellulose) (HPC)) 109 % of control; (dose: 1.56 mg/kg/injection, schedule: Q01DX009 (ip), vehicle: Klucel (hydroxypropylcellulose) (HPC)) 109 % of control; (dose: 3.13 mg/kg/injection, schedule: Q01DX009 (ip), vehicle: Klucel (hydroxypropylcellulose) (HPC)) 99 % of control; (dose: 6.25 mg/kg/injection, schedule: Q01DX009 (ip), vehicle: Klucel (hydroxypropylcellulose) (HPC)) 102 % of control; under setting [4], 93 % of control.

In the case of `C/C=C/c1cc2n(c1)C(=O)c1cc(OC3OC(C)C(NC)C(C)(O)C3O)c(C)c(O)c1NC2O` (stereo not given), the T/C is 106 % of control (dose: 0.25 micrograms/kg/injection, schedule: Q01DX009 (ip), vehicle: saline) and 114 % of control (dose: 2.0 micrograms/kg/injection, schedule: Q04DX003 (ip), vehicle: DMSO).

On to `O=C1c2c(O)ccc(O)c2C(=O)c2c(NCCNCCO)ccc(NCCNCCO)c21`, for which the T/C (dose: 0.12 mg/kg/injection, schedule: Q01DX009 (ip), vehicle: water) was 111 % of control; the T/C (dose: 0.12 mg/kg/injection, schedule: Q03HX024 (ip), vehicle: acid diluted with saline) is 287 % of control; the T/C (dose: 0.13 mg/kg/injection, schedule: Q01DX009 (ip), vehicle: water) was 184 % of control; the T/C (dose: 0.25 mg/kg/injection, schedule: Q01DX005 (ip), vehicle: saline) is 183 % of control; the T/C (dose: 0.25 mg/kg/injection, schedule: Q01DX005 (iv), vehicle: acid diluted with saline) is 102 % of control; the T/C (dose: 0.25 mg/kg/injection, schedule: Q01DX005 (iv), vehicle: saline) is 88 % of control. Besides, the T/C by setting is: (dose: 0.25 mg/kg/injection, schedule: Q01DX009 (ip), vehicle: acid diluted with saline) 172 % of control; (dose: 0.25 mg/kg/injection, schedule: Q01DX009 (ip), vehicle: water) 212 % of control [middle of 4 runs]; (dose: 0.25 mg/kg/injection, schedule: Q01DX009 (sc), vehicle: acid diluted with saline) 101 % of control; (dose: 0.25 mg/kg/injection, schedule: Q03HX008 (ip), vehicle: acid diluted with saline) 206 % of control; (dose: 0.25 mg/kg/injection, schedule: Q03HX024 (ip), vehicle: acid diluted with saline) 292 % of control; (dose: 0.31 mg/kg/injection, schedule: Q01DX009 (ip), vehicle: water) 168 % of control. Further, the T/C was 206 % of control (dose: 0.5 mg/kg/injection, schedule: Q01DX005 (ip), vehicle: saline); 99 % of control (dose: 0.5 mg/kg/injection, schedule: Q01DX005 (iv), vehicle: acid diluted with saline); 93 % of control (dose: 0.5 mg/kg/injection, schedule: Q01DX005 (iv), vehicle: saline); 185 % of control (dose: 0.5 mg/kg/injection, schedule: Q01DX009 (ip), vehicle: acid diluted with saline); 222 % of control (dose: 0.5 mg/kg/injection, schedule: Q01DX009 (ip), vehicle: other); 216 % of control and 326 % of control and 337 % of control (dose: 0.5 mg/kg/injection, schedule: Q01DX009 (ip), vehicle: water). Also, the T/C by setting is: (dose: 0.5 mg/kg/injection, schedule: Q01DX009 (sc), vehicle: acid diluted with saline) 121 % of control; (dose: 0.5 mg/kg/injection, schedule: Q03HX008 (ip), vehicle: acid diluted with saline) 219 % of control; (dose: 0.62 mg/kg/injection, schedule: Q01DX009 (ip), vehicle: water) 198 % of control and 234 % of control; (dose: 1.0 mg/kg/injection, schedule: Q01DX005 (ip), vehicle: saline) 275 % of control; (dose: 1.0 mg/kg/injection, schedule: Q01DX005 (iv), vehicle: acid diluted with saline) 99 % of control; (dose: 1.0 mg/kg/injection, schedule: Q01DX005 (iv), vehicle: saline) 105 % of control. Further, the T/C was 229 % of control (dose: 1.0 mg/kg/injection, schedule: Q01DX009 (ip), vehicle: acid diluted with saline); 220 % of control (dose: 1.0 mg/kg/injection, schedule: Q01DX009 (ip), vehicle: other); 326 % of control [middle of 4 runs] (dose: 1.0 mg/kg/injection, schedule: Q01DX009 (ip), vehicle: water); 103 % of control (dose: 1.0 mg/kg/injection, schedule: Q01DX009 (oral), vehicle: acid diluted with saline); 284 % of control (dose: 1.0 mg/kg/injection, schedule: Q03HX008 (ip), vehicle: acid diluted with saline); 200 % of control (dose: 1.0 mg/kg/injection, schedule: Q04DX003 (ip), vehicle: acid diluted with saline). Further, the T/C is 238 % of control and 252 % of control (dose: 1.25 mg/kg/injection, schedule: Q01DX009 (ip), vehicle: water); 275 % of control (dose: 2.0 mg/kg/injection, schedule: Q01DX005 (ip), vehicle: saline); 121 % of control (dose: 2.0 mg/kg/injection, schedule: Q01DX005 (iv), vehicle: acid diluted with saline); 100 % of control (dose: 2.0 mg/kg/injection, schedule: Q01DX005 (iv), vehicle: saline); 151 % of control (dose: 2.0 mg/kg/injection, schedule: Q01DX009 (ip), vehicle: acid diluted with saline); 105 % of control (dose: 2.0 mg/kg/injection, schedule: Q01DX009 (ip), vehicle: other). Also, the T/C (dose: 2.0 mg/kg/injection, schedule: Q01DX009 (ip), vehicle: water) was 162 % of control and 187 % of control; the T/C (dose: 2.0 mg/kg/injection, schedule: Q01DX009 (oral), vehicle: acid diluted with saline) is 102 % of control; the T/C (dose: 2.0 mg/kg/injection, schedule: Q03HX008 (ip), vehicle: acid diluted with saline) is 292 % of control; the T/C (dose: 2.0 mg/kg/injection, schedule: Q04DX003 (ip), vehicle: acid diluted with saline) is 224 % of control; the T/C (dose: 4.0 mg/kg/injection, schedule: Q01DX001 (ip), vehicle: acid diluted with saline) is 200 % of control and 254 % of control; the T/C (dose: 4.0 mg/kg/injection, schedule: Q01DX001 (iv), vehicle: acid diluted with saline) was 108 % of control. The T/C was 262 % of control (dose: 4.0 mg/kg/injection, schedule: Q01DX009 (ip), vehicle: water); 96 % of control (dose: 4.0 mg/kg/injection, schedule: Q01DX009 (oral), vehicle: acid diluted with saline); 278 % of control (dose: 4.0 mg/kg/injection, schedule: Q04DX003 (ip), vehicle: acid diluted with saline); 219 % of control and 260 % of control (dose: 8.0 mg/kg/injection, schedule: Q01DX001 (ip), vehicle: acid diluted with saline); 104 % of control (dose: 8.0 mg/kg/injection, schedule: Q01DX001 (iv), vehicle: acid diluted with saline); 92 % of control (dose: 8.0 mg/kg/injection, schedule: Q04DX003 (ip), vehicle: acid diluted with saline). Also, the T/C was 245 % of control and 98 % of control (dose: 9.0 mg/kg/injection, schedule: Q01DX001 (ip), vehicle: acid diluted with saline); 220 % of control and 292 % of control (dose: 16.0 mg/kg/injection, schedule: Q01DX001 (ip), vehicle: acid diluted with saline); 196 % of control (dose: 18.0 mg/kg/injection, schedule: Q01DX001 (ip), vehicle: acid diluted with saline); 234 % of control (dose: 32.0 mg/kg/injection, schedule: Q01DX001 (ip), vehicle: acid diluted with saline).

As to `C=C[Si]12OCCN(CCO1)CCO2`, the T/C is 112 % of control and 96 % of control under setting [4]; 95 % of control and 99 % of control (dose: 25.0 mg/kg/injection, schedule: Q01DX009 (ip), vehicle: Klucel (hydroxypropylcellulose) (HPC)); 101 % of control under setting [1]; 111 % of control and 95 % of control under setting [2]; 93 % of control and 104 % of control under setting [3].
